Measurements taken from patent US12103952B2, “Methods for expressing proteins in axons” (Cornell University, priority 2010, dated 2024).

Tested on: CREB
Experiment: CREB levels in severed axons by immunofluorescence
Assay type: cell-based, rat
Details: for NGF-dependent restoration of CREB immunofluorescence: 1 μM cycloheximide or 40 μM anisomycin, concurrent with NGF replacement
Experimental: FIGS. 7A-B are results showing the axonal translation and retrograde transport of endogenous CREB. (A) CREB levels in severed axons of E15 DRGs were assayed by immunofluorescence with a CREB-specific antibody. CREB was depleted on removal of NGF, with near complete loss of fluorescence signals by 3 hours. […] The error bars represent s.e.m. (n=40). (B) CREB is depleted from axon terminals in a microtubule-dependent manner. CREB levels in severed axons were monitored, as in A, after removal and restoration of NGF, in the presence of LLnL or colchicine. Colchicine, but not LLnL, blocked the reduction in CREB levels following removal of NGF. The error bars represent s.e.m. (n=40).
E15 rat or E13 mouse embryonic dorsal root ganglion (DRG) explants were plated on glass-bottom culture dishes (MatTek) or glass coverslips pre-coated with 33 μg/ml poly-D-lysine and 1 μg/ml laminin. CREB^α/Δ−/+ animals used to generate CREB^α/Δ−/− embryos were from Jackson Labs. E15 dissociated DRG neurons were prepared as described by Wu et al., Nature 436, 1020-1024 (2005). DRGs were cultured in B27/Neurobasal medium (Invitrogen) supplemented with 100 ng/ml nerve growth factor (NGF) and […] 5′-fluorodeoxyuridine (5-FdU) for 3 days. siRNA-mediated knockdown in DRG neurons has been described previously by Higuchi et al., Biochemical & Biophysical Research Communications 301, 804-809 (2003) and was performed using siRNAs listed in Table S3. For measurements of CREB levels in isolated axons, axons were severed from cell bodies by removing the explant with a flame-sharpened Pasteur pipette (Wu et al., Nature 436, 1020-1024 (2005)). Modified Boyden chambers were based on the procedure of Twiss (Zheng et al., Journal of Neuroscience 21, 9291-9303 (2001)) and modified to obtain distal axons as described by Wu et al., Nature 436, 1020-1024 (2005). mRNA from harvested axons (Wu et al., Nature 436, 1020-1024 (2005)) was used to prepare a cDNA library using a modified, unbiased single cell protocol as described below. See also Tietjen et al., Neuron 38, 161-175 (2003). Compartmented (Campenot) cultures were prepared as described below. See also Campenot, Proc Natl Acad Sci USA 74, 4516-4519 (1977)).
Images and measurements of signals in axons were taken from the terminal 50 μm of the axon, except where indicated. Analyzed axons were a minimum of 2000 μm for all experiments. DRGs were fixed with 4% PFA in CBS overnight at 4° C., permeabilized with 0.5% Triton X-100/TBS, and blocked in 4% BSA/TBS for 1 hour. DRGs were labeled with antibodies (Table S4) in 2% BSA/0.1% Triton X-100/TBS overnight at 4° C. For image acquisition details, see below.
The axonal localization of CREB was also examined by immunofluorescence. Axons were severed from cultured DRG explants to rule out potential contributions from anterograde transport of cell body-derived CREB. […] Although the majority of CREB protein localized to the nucleus, with substantially lower levels in axons (FIG. 4D), the immunofluorescence signal in axons was specific. Similar immunofluorescence staining was seen using a different CREB-specific antibody that recognized a non-overlapping epitope.
The importin proteins, which bind nuclear-localization sequences (NLS) (Goldfarb et al., Trends in Cell Biology 14, 505-514 (2004)), are present in axons and mediate the retrograde trafficking of axonally-injected fluorescently-labeled NLS peptides (Hanz et al., Neuron 40, 1095-1104 (2003)). Since CREB contains a NLS that mediates its nuclear localization (Waeber & Habener, Mol Endocrinol 5, 1418-1430 (1991)), axonal CREB may be retrogradely transported to the cell body. To determine if endogenously-expressed CREB is retrogradely trafficked, we examined the time course of CREB reduction in axons upon replacement of media with NGF-free media. […]

Compound	CREB immunoreactivity in severed axons (100 ng/ml NGF + 1 μM cycloheximide, 3 hours)	NGF-dependent restoration of CREB immunofluorescence	time for axonal CREB levels to decrease to baseline (after NGF removal) [h]	time for CREB levels to return to original levels (following restoration of NGF) [h]	recovery in CREB levels (within 30 min of NGF restoration) [%]
C[C@@H]1C[C@@H]([C@H](O)CC2CC(=O)NC(=O)C2)C(=O)[C@@H](C)C1 [cycloheximide]	loss of CREB immunoreactivity	prevented the restoration of CREB immunofluorescence			
NGF: nerve growth factor			≤ 3	2	~40
COc1ccc(C[C@H]2NC[C@H](O)[C@H]2OC(C)=O)cc1 [anisomycin]		prevented the restoration of CREB immunofluorescence			
